Assay results published in ChEMBL document CHEMBL1143309, “Bisubstrate Inhibitors of the MYST HATs Esa1 and Tip60” (Bioorg Med Chem, 2009).

Assays:
[1] = Inhibition of His6x-tagged yeast recombinant Esa1 (105-445) expressed in Escherichia coli BL21 (DE3) by liquid scintillation; parameters: species or system Saccharomyces cerevisiae
[2] = target: T1, Histone acetyltransferase KAT5 (Homo sapiens, UniProt Q92993); assay: Inhibition of recombinant Tip60 (1-513) expressed in Escherichia coli BL21 (DE3) by liquid scintillation
T1 sequence (Q92993 whole entry): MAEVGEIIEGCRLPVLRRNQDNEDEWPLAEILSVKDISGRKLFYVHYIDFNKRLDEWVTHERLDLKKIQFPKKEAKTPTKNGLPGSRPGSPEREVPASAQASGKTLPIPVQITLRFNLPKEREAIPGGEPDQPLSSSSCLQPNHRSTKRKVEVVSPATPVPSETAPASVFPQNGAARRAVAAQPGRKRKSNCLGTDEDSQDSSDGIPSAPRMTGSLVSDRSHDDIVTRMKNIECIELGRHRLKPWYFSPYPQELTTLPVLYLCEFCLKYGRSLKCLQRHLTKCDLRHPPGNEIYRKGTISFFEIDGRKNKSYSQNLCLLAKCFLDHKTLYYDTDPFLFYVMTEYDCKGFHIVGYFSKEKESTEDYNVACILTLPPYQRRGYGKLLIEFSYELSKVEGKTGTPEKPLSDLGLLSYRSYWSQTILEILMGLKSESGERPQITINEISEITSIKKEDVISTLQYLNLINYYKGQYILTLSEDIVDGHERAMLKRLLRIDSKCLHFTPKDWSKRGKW

[3] = target: Histone acetyltransferase p300 (Homo sapiens, UniProt Q09472); assay: Inhibition of recombinant p300
Sequence of Histone acetyltransferase p300 (Q09472 whole entry, the tested form may be a part): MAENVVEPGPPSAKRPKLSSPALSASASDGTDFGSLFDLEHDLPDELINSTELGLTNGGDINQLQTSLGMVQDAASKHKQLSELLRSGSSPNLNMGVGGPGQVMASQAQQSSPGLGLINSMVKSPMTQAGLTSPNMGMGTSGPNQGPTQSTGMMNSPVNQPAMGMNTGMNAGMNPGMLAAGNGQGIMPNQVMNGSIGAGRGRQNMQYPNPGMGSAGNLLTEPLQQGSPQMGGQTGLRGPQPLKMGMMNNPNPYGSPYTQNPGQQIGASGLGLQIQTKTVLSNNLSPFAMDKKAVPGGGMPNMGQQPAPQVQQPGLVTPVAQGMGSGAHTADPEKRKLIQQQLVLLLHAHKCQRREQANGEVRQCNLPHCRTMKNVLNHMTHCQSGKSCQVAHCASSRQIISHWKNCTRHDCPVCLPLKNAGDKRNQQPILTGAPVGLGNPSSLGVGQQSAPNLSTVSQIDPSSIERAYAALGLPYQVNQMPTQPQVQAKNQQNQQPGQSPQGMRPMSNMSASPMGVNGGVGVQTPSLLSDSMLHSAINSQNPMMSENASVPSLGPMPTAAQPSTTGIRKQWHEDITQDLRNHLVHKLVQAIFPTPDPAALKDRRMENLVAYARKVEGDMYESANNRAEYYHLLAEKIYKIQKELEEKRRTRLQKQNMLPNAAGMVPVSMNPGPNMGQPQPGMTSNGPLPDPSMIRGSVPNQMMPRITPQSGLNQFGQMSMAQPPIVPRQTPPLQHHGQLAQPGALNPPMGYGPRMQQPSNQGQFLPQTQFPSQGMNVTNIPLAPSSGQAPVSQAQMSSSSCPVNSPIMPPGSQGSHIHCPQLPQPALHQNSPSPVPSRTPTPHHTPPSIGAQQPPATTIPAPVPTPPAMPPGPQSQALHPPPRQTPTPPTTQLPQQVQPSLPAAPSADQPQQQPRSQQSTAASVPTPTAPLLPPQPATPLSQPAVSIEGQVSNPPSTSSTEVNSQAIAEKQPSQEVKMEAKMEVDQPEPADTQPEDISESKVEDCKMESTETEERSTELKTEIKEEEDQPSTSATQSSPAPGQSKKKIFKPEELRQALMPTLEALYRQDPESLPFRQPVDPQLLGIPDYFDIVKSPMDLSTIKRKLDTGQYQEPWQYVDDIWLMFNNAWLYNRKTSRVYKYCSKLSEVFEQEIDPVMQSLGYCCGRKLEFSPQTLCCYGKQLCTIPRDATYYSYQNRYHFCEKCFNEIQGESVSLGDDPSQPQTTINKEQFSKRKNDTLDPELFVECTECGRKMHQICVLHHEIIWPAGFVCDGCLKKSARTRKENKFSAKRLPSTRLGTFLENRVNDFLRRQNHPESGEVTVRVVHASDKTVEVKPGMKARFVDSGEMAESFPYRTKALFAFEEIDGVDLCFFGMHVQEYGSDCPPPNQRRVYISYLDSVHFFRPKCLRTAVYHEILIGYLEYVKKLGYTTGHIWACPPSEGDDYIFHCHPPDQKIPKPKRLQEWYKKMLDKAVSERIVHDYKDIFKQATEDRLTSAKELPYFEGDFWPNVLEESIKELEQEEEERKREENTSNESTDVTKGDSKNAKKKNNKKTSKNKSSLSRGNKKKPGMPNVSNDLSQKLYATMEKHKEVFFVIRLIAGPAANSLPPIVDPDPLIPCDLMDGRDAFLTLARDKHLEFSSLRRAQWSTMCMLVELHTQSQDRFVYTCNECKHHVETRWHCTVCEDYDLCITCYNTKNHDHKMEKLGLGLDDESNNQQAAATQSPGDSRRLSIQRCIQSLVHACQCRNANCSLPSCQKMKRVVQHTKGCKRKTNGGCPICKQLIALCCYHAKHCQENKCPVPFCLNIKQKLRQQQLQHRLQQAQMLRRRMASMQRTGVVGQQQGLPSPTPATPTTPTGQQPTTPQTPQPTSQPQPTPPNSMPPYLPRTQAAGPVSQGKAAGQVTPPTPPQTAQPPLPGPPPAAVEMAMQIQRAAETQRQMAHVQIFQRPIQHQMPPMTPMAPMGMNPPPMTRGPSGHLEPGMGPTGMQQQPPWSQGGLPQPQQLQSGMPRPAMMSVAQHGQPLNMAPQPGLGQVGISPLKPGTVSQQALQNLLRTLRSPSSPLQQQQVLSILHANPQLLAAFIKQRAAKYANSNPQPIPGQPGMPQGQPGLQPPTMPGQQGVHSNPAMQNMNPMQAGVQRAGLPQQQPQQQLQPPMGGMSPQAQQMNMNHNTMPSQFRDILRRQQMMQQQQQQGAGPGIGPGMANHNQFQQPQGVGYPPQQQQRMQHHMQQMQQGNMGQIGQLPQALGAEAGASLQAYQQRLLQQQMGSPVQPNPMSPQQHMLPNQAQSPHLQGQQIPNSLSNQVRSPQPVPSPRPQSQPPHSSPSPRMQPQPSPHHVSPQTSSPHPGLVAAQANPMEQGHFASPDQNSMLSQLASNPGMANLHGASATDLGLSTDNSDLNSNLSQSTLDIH

[4] = target: Histone acetyltransferase KAT2B (Homo sapiens, UniProt Q92831); assay: Inhibition of PCAF HAT domain (493-658) expressed in Escherichia coli BL21 (DE3)
Sequence of Histone acetyltransferase KAT2B (Q92831 whole entry, the tested form may be a part): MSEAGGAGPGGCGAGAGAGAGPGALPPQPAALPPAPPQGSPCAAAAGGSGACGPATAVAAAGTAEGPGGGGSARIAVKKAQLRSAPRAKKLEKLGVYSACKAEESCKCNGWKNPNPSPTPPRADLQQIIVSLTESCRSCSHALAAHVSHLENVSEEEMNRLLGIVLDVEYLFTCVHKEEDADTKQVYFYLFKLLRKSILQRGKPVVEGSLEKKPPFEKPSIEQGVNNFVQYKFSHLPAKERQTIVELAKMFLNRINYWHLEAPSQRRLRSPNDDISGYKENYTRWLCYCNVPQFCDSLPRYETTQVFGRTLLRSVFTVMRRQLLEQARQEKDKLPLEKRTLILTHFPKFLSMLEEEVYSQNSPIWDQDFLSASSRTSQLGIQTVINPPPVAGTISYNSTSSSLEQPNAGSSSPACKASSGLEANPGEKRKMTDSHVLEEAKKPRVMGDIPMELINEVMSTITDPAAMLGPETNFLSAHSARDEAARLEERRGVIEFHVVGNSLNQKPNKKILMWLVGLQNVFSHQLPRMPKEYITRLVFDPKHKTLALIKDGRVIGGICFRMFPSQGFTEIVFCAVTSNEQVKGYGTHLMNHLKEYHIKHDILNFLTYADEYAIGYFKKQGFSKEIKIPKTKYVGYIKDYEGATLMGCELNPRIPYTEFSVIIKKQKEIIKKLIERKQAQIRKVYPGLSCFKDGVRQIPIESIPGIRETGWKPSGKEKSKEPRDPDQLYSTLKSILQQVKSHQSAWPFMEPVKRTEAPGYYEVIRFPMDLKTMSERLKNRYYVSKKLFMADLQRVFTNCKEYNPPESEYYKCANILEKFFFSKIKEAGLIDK

[5] = target: T1, Histone acetyltransferase KAT5; assay: Inhibition of TIP60 in human HeLa cell extracts by ELISA

Row | SMILES | IC50 [1] [µM] | IC50 [2] [µM] | IC50 [3] [µM] | IC50 [4] [µM] | IC50 [5] [µM]
1 | CC(=O)N[C@@H](CCCCNC(=O)CSCCNC(=O)CCNC(=O)[C@H](O)C(C)(C)COP(=O)(O)OP(=O)(O)OC[C@H]1O[C@@H](n2cnc3c(N)ncnc32)[C@H](O)[C@@H]1OP(=O)(O)O)C(N)=O | 7 | 29.8 | 0.98 | 108 | –
2 | COc1cc(/C=C/C(=O)CC(=O)/C=C/c2ccc(O)c(OC)c2)ccc1O [CURCUMIN] | > 150 | > 200 | – | – | –
3 | CC(C)(COP(=O)(O)OP(=O)(O)OC[C@H]1O[C@@H](n2cnc3c(N)ncnc32)[C@H](O)[C@@H]1OP(=O)(O)O)[C@@H](O)C(=O)NCCC(=O)NCCS [COENZYME_A] | 68.6 | 82.3 | 45.9 | 41.9 | –
4 | C=CC/C=C\C/C=C\CCCCCCCc1cccc(O)c1C(=O)O [ANACARDIC ACID] | 297 | 375 | > 1000 | 667 | 9
